For assay [1], the species on record is Homo sapiens. Kind of assay: Inhibition of Anti-PLA2R IgG interaction with human recombinant PLA2 receptor at 10 uM by SPR analysis relative to control. Background: SPR reads the build-up and loss of mass on a sensor chip optically.
For assay [2], the species on record is Homo sapiens. The assay is described as follows: Inhibition of Anti-PLA2R IgG interaction with human recombinant PLA2 receptor at 10 uM incubated for 1 hr by ELISA analysis relative to control. (In general: An ELISA detects its analyte on a solid surface through an enzyme-linked reagent.)
Assay [3] has as its target Secretory phospholipase A2 receptor (Homo sapiens, UniProt Q13018). Kind of assay: Binding affinity to human recombinant PLA2 receptor assessed as dissociation constant by SPR analysis.
Assay [4] concerns Podocyte. Kind of assay: Reversal of membranous nephropathy-patient derived 5% plasma induced cytotoxicity against human Podocytes assessed as cell viability recovery by measuring optical density at 5 uM measured at 72 hrs by CCK-8 assay (reference value: 0.3 +/- 0.05). It is filed as functional. A general note: Tetrazolium dyes change colour on reduction, which living cells bring about.

The test system of a further assay is Podocytes. The assay is described as follows: Inhibition of Anti-PLA2R IgG binding to human recombinant PLA2 receptor in human Podocytes assessed as mean fluorescence intensity at 5 uM by immunofluorescence analysis (reference value: 8.1 +/- 1.5). Format: cell-based.
For assay [5], the system named is Podocyte. The assay is described as follows: Reversal of membranous nephropathy-patient derived 5% plasma induced cytotoxicity against human Podocytes assessed as cell viability recovery by measuring optical density at 1 uM measured at 48 hrs by CCK-8 assay (reference value: 0.4 +/- 0.1). Format: functional.
The species named for assay [6] is Homo sapiens. The assay is described as follows: Inhibition of Anti-PLA2R IgG interaction with human recombinant PLA2 receptor assessed as maximum inhibition at 0 to 5 uM by SPR analysis relative to control. To be noted: dose 0-5 µM.
For assay [7], the system named is Podocyte. The assay is described as follows: Reversal of membranous nephropathy-patient derived 5% plasma induced cytotoxicity against human Podocytes assessed as cell viability recovery by measuring optical density at 0.2 uM measured at 48 hrs by CCK-8 assay (reference value: 0.4 +/- 0.1). Format: functional.
The species named for assay [8] is Homo sapiens. The assay is described as follows: Binding affinity to human Anti-PLA2R IgG at 1 to 500 uM by SPR analysis. The settings on record: dose 1-500 µM.
Assay [9] has as its system Podocyte. Kind of assay: Reversal of membranous nephropathy-patient derived 5% plasma induced inhibition of cell migration in human Podocytes assessed as restoration of number of migrating cells at 1 uM measured upto 24 hrs by wound healing assay (reference value: 25.3 +/- 5.1). It is filed as functional.
For assay [10], the system named is Podocyte. Kind of assay: Reversal of membranous nephropathy-patient derived 5% plasma induced cytotoxicity against human Podocytes assessed as cell viability recovery by measuring optical density at 1 uM measured at 72 hrs by CCK-8 assay (reference value: 0.3 +/- 0.05). It is filed as functional.
For assay [11], the system named is Podocyte. The assay is described as follows: Recovery of Podocin-expression in membranous nephropathy-patient derived 5% plasma induced human Podocytes by Western blot analysis. It is filed as functional, cell-based. The settings on record: dose 0.2-5 µM.
The species named for assay [12] is Homo sapiens. The assay is described as follows: Inhibition of Anti-PLA2R IgG interaction with human recombinant PLA2 receptor by SPR analysis. The settings on record: dose 50-80 nM.
Assay [13] relates to Podocyte. The assay is described as follows: Reversal of membranous nephropathy-patient derived 5% plasma induced cytotoxicity against human Podocytes assessed as cell viability recovery by measuring optical density at 0.2 uM measured at 72 hrs by CCK-8 assay (reference value: 0.3 +/- 0.05). Format: functional.
The test system of assay [14] is Podocyte. The assay is described as follows: Reversal of membranous nephropathy-patient derived 5% plasma induced cytotoxicity against human Podocytes assessed as cell viability recovery by measuring optical density at 5 uM measured at 48 hrs by CCK-8 assay (reference value: 0.4 +/- 0.1). Format: functional.

The structures appear in SMILES notation. Active and inactive are the calls of the source. The rule behind the calls is not given here. Starred links: 1 amine or outer side, 2 acyl side, 3 side chain; linkers in the order of their positions; H or OH if unused. Positions of bridges follow the written chain, without caps; N, C: chain ends. Non-standard residues stand in square brackets, D forms with d. Residues, ends and D or L forms follow the SMILES beside them. Chains are numbered I, II in the order given. Actinocin(9to1) = Cc1c2oc3c(C)ccc(C(=O)[*:1])c3nc-2c(C(=O)[*:2])c(N)c1=O; NMeV = CN[C@H](C(=O)O)C(C)C; Sar = CNCC(=O)O

Sequence of Secretory phospholipase A2 receptor (Q13018 whole entry): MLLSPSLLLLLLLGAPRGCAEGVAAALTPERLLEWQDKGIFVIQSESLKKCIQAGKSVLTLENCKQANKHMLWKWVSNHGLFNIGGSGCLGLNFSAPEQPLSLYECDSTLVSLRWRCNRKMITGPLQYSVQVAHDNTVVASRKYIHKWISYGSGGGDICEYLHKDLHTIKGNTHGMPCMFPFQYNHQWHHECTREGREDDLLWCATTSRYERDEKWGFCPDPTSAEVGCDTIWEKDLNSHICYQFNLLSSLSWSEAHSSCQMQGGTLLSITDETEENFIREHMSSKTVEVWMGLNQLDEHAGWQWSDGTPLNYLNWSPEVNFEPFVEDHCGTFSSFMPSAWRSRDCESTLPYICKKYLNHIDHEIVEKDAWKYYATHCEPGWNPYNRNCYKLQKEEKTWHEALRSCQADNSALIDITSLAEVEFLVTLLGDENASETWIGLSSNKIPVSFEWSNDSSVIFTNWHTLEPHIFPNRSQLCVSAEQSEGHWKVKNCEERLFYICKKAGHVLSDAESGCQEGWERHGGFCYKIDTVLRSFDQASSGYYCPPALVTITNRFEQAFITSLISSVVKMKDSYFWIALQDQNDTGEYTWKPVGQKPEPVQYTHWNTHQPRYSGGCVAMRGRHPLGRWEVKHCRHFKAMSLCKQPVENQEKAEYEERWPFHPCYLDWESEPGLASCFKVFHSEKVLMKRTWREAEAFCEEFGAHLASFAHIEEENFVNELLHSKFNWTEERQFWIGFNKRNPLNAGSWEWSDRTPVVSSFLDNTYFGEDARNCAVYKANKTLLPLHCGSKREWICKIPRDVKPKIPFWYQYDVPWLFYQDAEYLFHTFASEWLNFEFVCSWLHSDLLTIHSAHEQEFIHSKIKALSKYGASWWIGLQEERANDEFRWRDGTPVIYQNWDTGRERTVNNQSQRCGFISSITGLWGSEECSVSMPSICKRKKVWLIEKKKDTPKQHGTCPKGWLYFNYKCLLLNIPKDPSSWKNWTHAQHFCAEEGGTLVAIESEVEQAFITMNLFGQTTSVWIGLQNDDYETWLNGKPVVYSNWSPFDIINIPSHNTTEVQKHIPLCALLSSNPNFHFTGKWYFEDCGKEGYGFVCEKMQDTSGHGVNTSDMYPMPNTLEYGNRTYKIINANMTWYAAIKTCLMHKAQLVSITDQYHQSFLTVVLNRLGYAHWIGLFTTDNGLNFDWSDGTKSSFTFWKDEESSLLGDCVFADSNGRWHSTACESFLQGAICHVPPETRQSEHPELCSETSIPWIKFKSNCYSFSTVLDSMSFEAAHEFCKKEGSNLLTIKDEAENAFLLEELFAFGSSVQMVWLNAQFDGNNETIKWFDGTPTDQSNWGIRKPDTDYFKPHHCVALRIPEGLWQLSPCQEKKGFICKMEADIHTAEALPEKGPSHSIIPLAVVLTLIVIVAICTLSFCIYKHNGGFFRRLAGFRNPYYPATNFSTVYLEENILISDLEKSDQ

Take `COc1cc(O)c2c(=O)c3cc(CC=C(C)C)c(O)c(O)c3oc2c1CC=C(C)C`: the inhibition (commonly the percentage by which the read-out fell short of the control) came to 10.7% in the assay filed under Homo sapiens [1] and 51.8% in the assay listed under Homo sapiens [2].
As to `Cc1c2oc3c(C)ccc(C(=O)N[C@@H]4C(=O)N[C@H](C(C)C)C(=O)N5CCC[C@H]5C(=O)N(C)CC(=O)N(C)[C@@H](C(C)C)C(=O)O[C@@H]4C)c3nc-2c(C(=O)N[C@@H]2C(=O)N[C@H](C(C)C)C(=O)N3CCC[C@H]3C(=O)N(C)CC(=O)N(C)[C@@H](C(C)C)C(=O)O[C@@H]2C)c(N)c1=O` (I: T[dV]P[Sar][NMeV] / II: T[dV]P[Sar][NMeV]; ester I:1-I:C, II:1-II:C; linker I:N-II:N via Actinocin(9to1)), the inhibition in the assay filed under Homo sapiens [2] is 79.3%.
With `CC(C)=CCC[C@]1(C)C=Cc2c(O)c3c(c(CC=C(C)C)c2O1)O[C@]12C(=C[C@@H]4C[C@H]1C(C)(C)O[C@@]2(C/C=C(/C)C(=O)O)C4=O)C3=O`, the inhibition in the assay listed under Homo sapiens [1] was 13.4%; in the assay listed under Homo sapiens [2] it was 73.1%.
Turning to `COc1c(O)c2c(=O)cc(OC)c3c4c(OC)cc(O)c5c(=O)c(OC)c6c(c(c1[C@H](C(C)=O)[C@](C)(O)C6)c23)c54`, the inhibition is 11.9% in the assay filed under Homo sapiens [1] and 74.3% in the assay filed under Homo sapiens [2].
As to `CC(C)=CCc1cc2c(=O)c3c(O)c(CC=C(C)C)c(O)c(CC=C(C)C)c3oc2c(O)c1O`, the inhibition in the assay filed under Homo sapiens [2] was determined as 55.4%.
Same read-out and setting: in the case of `CC1(C)CC[C@]2(C(=O)O)CC[C@]3(COC(=O)/C=C/c4ccc(O)c(O)c4)C(=CC[C@@H]4[C@@]5(C)CC[C@H](O)C(C)(C)[C@@H]5CC[C@]43C)[C@@H]2C1` it was 20.5%; in that of `CC(=O)O[C@H]1C[C@@H]2C(COC(=O)CC(C)C)=CO[C@@H](OC(=O)CC(C)C)[C@@H]2[C@@]12CO2`, 26.4%.
`CC(=O)O[C@H]1C[C@]2(O)C(COC(=O)C(OC(=O)CC(C)C)C(C)C)=CO[C@@H](OC(=O)CC(C)C)[C@@H]2[C@@]12CO2` (some centres undefined): the inhibition amounted to 7.7% in the assay filed under Homo sapiens [1] and 30.2% in the assay listed under Homo sapiens [2].
On the same counts, the results for `CC(C)C[C@@H](c1c(O)c(C=O)c(O)c(C=O)c1O)[C@@]1(C)CC[C@H]2C1=C[C@H](C(C)(C)O)CC[C@H]2C` are 11.3% and 21.2%.
For `CC(=O)C[C@]1(O)C(=O)C2=C(OC[C@@H]2C)c2ccc3c(C)cccc3c21`, the values for the inhibition in the assay listed under Homo sapiens [1] and in the assay filed under Homo sapiens [2] were 10.1% and 28.7%, respectively.
Taken in the same sequence, the figures for `CC(C)=CCc1c(O)c(CC=C(C)C)c2oc3c(O)ccc(O)c3c(=O)c2c1O` were 12.2% and 49.4%.
For the compound `CO[C@H]1C[C@H](O[C@H]2[C@H](C)O[C@@H](O[C@@H]3/C(C)=C/C[C@@H]4C[C@@H](C[C@]5(C=C[C@H](C)[C@@H](C6CCCCC6)O5)O4)OC(=O)[C@@H]4C=C(C)[C@@H](O)[C@H]5OC/C(=C\C=C\[C@@H]3C)[C@]54O)C[C@@H]2OC)O[C@@H](C)[C@@H]1O`, the figures for the inhibition in the assay listed under Homo sapiens [1] and in the assay filed under Homo sapiens [2] were 12% and 27.1%, respectively.
`CC(C)C[C@H](c1c(O)c(C=O)c(O)c(C=O)c1O)[C@@]1(C)CC[C@@H]2[C@@H]1[C@H]1[C@@H](CC[C@@]2(C)O)C1(C)C` [MACROCARPAL B]: the Kd (as a rule, the concentration at which binding is half-saturated) in assay [3] worked out at 1470 nM. For the same compound, the OD in the assay on Podocyte [4] is 0.6; in the assay with Podocyte [5], 0.7; with Podocyte [7], 0.6; in the assay with Podocyte [10], 0.6; with Podocyte [13] it was 0.5; in the assay on Podocyte [14], 0.8. The Flu intensity in the assay on Podocytes is 2.1. Moreover, the Imax in the assay filed under Homo sapiens [6] amounted to 30%. The outcome in the assay filed under Homo sapiens [8] was inactive. Moreover, the inhibition was 19% in the assay listed under Homo sapiens [1], “Dose-Dependent Effect” in the assay filed under Homo sapiens [12] and 41.6% in the assay listed under Homo sapiens [2]. For the same compound, the Activity in the assay on Podocyte [9] is 50.7; in the assay with Podocyte [11], “Dose-Dependent Effect”.
For the compound `CCCCCc1cc(O)c(C/C=C(\C)CCC=C(C)C)c(O)c1`, the inhibition in the assay filed under Homo sapiens [1] came out at 9.7%; in the assay listed under Homo sapiens [2] it was 32.9%.
On the same counts, the results for `CC(C)C[C@@H](c1c(O)c(C=O)c(O)c(C=O)c1O)[C@@H]1CC[C@@](C)(O)[C@@H]2[C@@H]3[C@H](CC[C@]21C)C3(C)C` are 12.6% and 34.3%.

The values above are taken from ChEMBL document CHEMBL5576086, “Macrocarpal B blocks the binding between the phospholipase A2 receptor and its antibodies” (Bioorg Med Chem, 2024).
